In BigSolDB 2.1:

O=[N+]([O-])c1cc([N+](=O)[O-])c(Cl)cc1Cl
Conditions	solubility (mole fraction)
in 1,2-dichloroethane, 298.15 K	0.138
in 1,2-dichloroethane, 303.15 K	0.156
in 1,2-dichloroethane, 308.15 K	0.176
in 1,2-dichloroethane, 313.15 K	0.199
in 1,2-dichloroethane, 318.15 K	0.224
in 1,2-dichloroethane, 323.15 K	0.251
in 1,2-dichloroethane, 328.15 K	0.282
in 1,2-dichloroethane, 333.15 K	0.316
in DMF, 298.15 K	0.286
in DMF, 303.15 K	0.308
in DMF, 308.15 K	0.329
in DMF, 313.15 K	0.353
in DMF, 318.15 K	0.378
in DMF, 323.15 K	0.406
in DMF, 328.15 K	0.436
in DMF, 333.15 K	0.469
in DMSO, 298.15 K	0.192
in DMSO, 303.15 K	0.215
in DMSO, 308.15 K	0.241
in DMSO, 313.15 K	0.269
in DMSO, 318.15 K	0.3
in DMSO, 323.15 K	0.332
in DMSO, 328.15 K	0.368
in DMSO, 333.15 K	0.408
in NMP, 298.15 K	0.362
in NMP, 303.15 K	0.381
in NMP, 308.15 K	0.4
in NMP, 313.15 K	0.421
in NMP, 318.15 K	0.444
in NMP, 323.15 K	0.468
in NMP, 328.15 K	0.495
in NMP, 333.15 K	0.524
in acetone, 288.15 K	0.169
in acetone, 293.15 K	0.187
in acetone, 298.15 K	0.206
in acetone, 303.15 K	0.227
in acetone, 308.15 K	0.249
in acetone, 313.15 K	0.273
in acetone, 318.15 K	0.298
in acetone, 323.15 K	0.326
in acetonitrile, 298.15 K	0.129
in acetonitrile, 303.15 K	0.154
in acetonitrile, 308.15 K	0.183
in acetonitrile, 313.15 K	0.217
in acetonitrile, 318.15 K	0.254
in acetonitrile, 323.15 K	0.296
in acetonitrile, 328.15 K	0.344
in acetonitrile, 333.15 K	0.397
in chloroform, 293.15 K	0.108
in chloroform, 298.15 K	0.128
in chloroform, 303.15 K	0.149
in chloroform, 308.15 K	0.175
in chloroform, 313.15 K	0.205
in chloroform, 318.15 K	0.238
in chloroform, 323.15 K	0.274
in chloroform, 328.15 K	0.319
in dichloromethane, 278.15 K	0.0915
in dichloromethane, 283.15 K	0.106
in dichloromethane, 288.15 K	0.121
in dichloromethane, 293.15 K	0.138
in dichloromethane, 298.15 K	0.158
in dichloromethane, 303.15 K	0.181
in dichloromethane, 308.15 K	0.205
in ethanol, 298.15 K	0.00702
in ethanol, 303.15 K	0.00858
in ethanol, 308.15 K	0.0104
in ethanol, 313.15 K	0.0126
in ethanol, 318.15 K	0.0156
in ethanol, 323.15 K	0.0189
in ethanol, 328.15 K	0.0232
in ethanol, 333.15 K	0.0282
in ethyl acetate, 298.15 K	0.17
in ethyl acetate, 303.15 K	0.189
in ethyl acetate, 308.15 K	0.207
in ethyl acetate, 313.15 K	0.228
in ethyl acetate, 318.15 K	0.251
in ethyl acetate, 323.15 K	0.277
in ethyl acetate, 328.15 K	0.306
in ethyl acetate, 333.15 K	0.336
in isopropanol, 298.15 K	0.00322
in isopropanol, 303.15 K	0.00429
in isopropanol, 308.15 K	0.00581
in isopropanol, 313.15 K	0.00763
in isopropanol, 318.15 K	0.01
in isopropanol, 323.15 K	0.0131
in isopropanol, 328.15 K	0.0173
in isopropanol, 333.15 K	0.0223
in methanol, 298.15 K	0.00929
in methanol, 303.15 K	0.0112
in methanol, 308.15 K	0.0135
in methanol, 313.15 K	0.0163
in methanol, 318.15 K	0.0197
in methanol, 323.15 K	0.0236
in methanol, 328.15 K	0.0284
in methanol, 333.15 K	0.0341
in n-butanol, 298.15 K	0.00624
in n-butanol, 303.15 K	0.00794
in n-butanol, 308.15 K	0.0101
in n-butanol, 313.15 K	0.0128
in n-butanol, 318.15 K	0.016
in n-butanol, 323.15 K	0.0201
in n-butanol, 328.15 K	0.025
in n-butanol, 333.15 K	0.0308
in tetrachloromethane, 298.15 K	0.0153
in tetrachloromethane, 303.15 K	0.0207
in tetrachloromethane, 308.15 K	0.0276
in tetrachloromethane, 313.15 K	0.0368
in tetrachloromethane, 318.15 K	0.049
in tetrachloromethane, 323.15 K	0.0638
in tetrachloromethane, 328.15 K	0.0835
in tetrachloromethane, 333.15 K	0.108
in toluene, 298.15 K	0.201
in toluene, 303.15 K	0.225
in toluene, 308.15 K	0.25
in toluene, 313.15 K	0.277
in toluene, 318.15 K	0.307
in toluene, 323.15 K	0.34
in toluene, 328.15 K	0.374
in toluene, 333.15 K	0.413
